Measurements reported in patent publication US9738634B2, “Heterocyclic amide compound and herbicide” (SYNGENTA PARTICIPATIONS AG, priority 2013, dated 2017).

What was measured:
Format in all cases: in vivo
barnyard grass [1] = assay: Test Example 1: weedkilling efficacy, preemergent weed treatment in the submerged state; A: barnyard grass
Outline: (§1)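 Alluvial soil in Wagner pots flooded to 4 cm; barnyard grass, bulrush and oval-leafed pondweed seeds sown, then 2.5-leaf rice seedlings transplanted. Same day, emulsified compound diluted in water to set g/ha dosages and applied to water surface; greenhouse 25–30 °C, effect scored by criteria after 3 weeks.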

bulrush [2] = assay: Test Example 1: weedkilling efficacy, preemergent weed treatment in the submerged state; B: bulrush
Outline: as §1

oval-leafed pondweed [3] = assay: Test Example 1: weedkilling efficacy, preemergent weed treatment in the submerged state; C: oval-leafed pondweed
Outline: as §1

transplanted rice = assay: Test Example 1: preemergent weed treatment in the submerged state, effect on crop; a: transplanted rice
Outline: as §1

barnyard grass [4] = assay: Test Example 2: weedkilling efficacy, growth period weed treatment in the submerged state; A: barnyard grass
Outline: (§2)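 First, alluvial soil in pots is flooded to 4 cm and mixed seed is sown. Next, plants grow in a greenhouse at 25 to 30° C until the 1-2 leaf stage. Then diluted emulsion is applied onto the water surface at the given g/ha rate, and injury is assessed after 3 weeks.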

bulrush [5] = assay: Test Example 2: weedkilling efficacy, growth period weed treatment in the submerged state; B: bulrush
Outline: as §2

oval-leafed pondweed [6] = assay: Test Example 2: weedkilling efficacy, growth period weed treatment in the submerged state; C: oval-leafed pondweed
Outline: as §2

Row | SMILES | A: barnyard grass, weed kill grade (barnyard grass [1]; treatment dosage 252 g/ha) | B: bulrush, weed kill grade (bulrush [2]; treatment dosage 252 g/ha) | C: oval-leafed pondweed, weed kill grade (oval-leafed pondweed [3]; treatment dosage 252 g/ha) | a: transplanted rice, effect on crop grade (transplanted rice; treatment dosage 252 g/ha) | A (barnyard grass) weedkilling efficacy grade (barnyard grass [4]; treatment dosage 252 g/ha) | B (bulrush) weedkilling efficacy grade (bulrush [5]; treatment dosage 252 g/ha) | C (oval-leafed pondweed) weedkilling efficacy grade (oval-leafed pondweed [6]; treatment dosage 252 g/ha) | A: barnyard grass, weed kill grade (barnyard grass [1]; treatment dosage 320 g/ha) | B: bulrush, weed kill grade (bulrush [2]; treatment dosage 320 g/ha) | C: oval-leafed pondweed, weed kill grade (oval-leafed pondweed [3]; treatment dosage 320 g/ha) | a: transplanted rice, effect on crop grade (transplanted rice; treatment dosage 320 g/ha) | A (barnyard grass) weedkilling efficacy grade (barnyard grass [4]; treatment dosage 320 g/ha) | B (bulrush) weedkilling efficacy grade (bulrush [5]; treatment dosage 320 g/ha) | C (oval-leafed pondweed) weedkilling efficacy grade (oval-leafed pondweed [6]; treatment dosage 320 g/ha) | A (barnyard grass) weedkilling efficacy grade (barnyard grass [1]; treatment dosage 252 g/ha) | B (bulrush) weedkilling efficacy grade (bulrush [2]; treatment dosage 252 g/ha) | C (oval-leafed pondweed) weedkilling efficacy grade (oval-leafed pondweed [3]; treatment dosage 252 g/ha) | a (transplanted rice) effect on crop grade (transplanted rice; treatment dosage 252 g/ha)
1 | CC(C)(C(=O)Nc1cncc(C(F)(F)F)c1)N1COCN(c2ccccc2)C1=O [A-3-10] | 5 (weed kill ratio 90% or more, (practically complete withering)) | 5 (weed kill ratio 90% or more, (practically complete withering)) | 5 (weed kill ratio 90% or more, (practically complete withering)) | 1 (weed kill ratio 5% or more, less than 20%) | 3 (weed kill ratio 40% or more, less than 70%) | 5 (weed kill ratio 90% or more, (practically complete withering)) | 4 (weed kill ratio 70% or more, less than 90%) | – | – | – | – | – | – | – | – | – | – | –
2 | COc1cccc(NC(=O)C(C)(C)N2COCN(c3ccccc3)C2=O)n1 [A-2-52] | 5 (weed kill ratio 90% or more, (practically complete withering)) | 5 (weed kill ratio 90% or more, (practically complete withering)) | 5 (weed kill ratio 90% or more, (practically complete withering)) | 1 (weed kill ratio 5% or more, less than 20%) | 4 (weed kill ratio 70% or more, less than 90%) | 5 (weed kill ratio 90% or more, (practically complete withering)) | 2 (weed kill ratio 20% or more, less than 40%) | – | – | – | – | – | – | – | – | – | – | –
3 | Cc1cc(C(F)(F)F)cc(NC(=O)C(C)(C)N2COCN(c3ccccc3)C2=O)n1 [A-2-58] | – | – | – | – | – | – | – | 5 (weed kill ratio 90% or more, (practically complete withering)) | 5 (weed kill ratio 90% or more, (practically complete withering)) | 5 (weed kill ratio 90% or more, (practically complete withering)) | 1 (weed kill ratio 5% or more, less than 20%) | 5 (weed kill ratio 90% or more, (practically complete withering)) | 5 (weed kill ratio 90% or more, (practically complete withering)) | 5 (weed kill ratio 90% or more, (practically complete withering)) | – | – | – | –
4 | CC(C)(C(=O)Nc1ccnc(Cl)c1)N1COCN(c2ccccc2)C1=O [A-4-02] | 5 (weed kill ratio 90% or more, (practically complete withering)) | 5 (weed kill ratio 90% or more, (practically complete withering)) | 5 (weed kill ratio 90% or more, (practically complete withering)) | 1 (weed kill ratio 5% or more, less than 20%) | 2 (weed kill ratio 20% or more, less than 40%) | 5 (weed kill ratio 90% or more, (practically complete withering)) | 4 (weed kill ratio 70% or more, less than 90%) | – | – | – | – | – | – | – | – | – | – | –
5 | Cc1ccc(N2COCN(C(C)(C)C(=O)Nc3cc(C(F)(F)F)ccn3)C2=O)cc1Cl [A-6-04] | – | – | – | – | – | – | – | 4 (weed kill ratio 70% or more, less than 90%) | 4 (weed kill ratio 70% or more, less than 90%) | 2 (weed kill ratio 20% or more, less than 40%) | 0 (weed kill ratio 5% or less (practically no effect)) | 1 (weed kill ratio 5% or more, less than 20%) | 2 (weed kill ratio 20% or more, less than 40%) | 0 (weed kill ratio 5% or less (practically no effect)) | – | – | – | –
6 | CC(C)(C(=O)Nc1nc(Cl)cc(Cl)n1)N1COCN(c2ccccc2)C1=O [A-1-19] | 2 (weed kill ratio 20% or more, less than 40%) | 3 (weed kill ratio 40% or more, less than 70%) | 2 (weed kill ratio 20% or more, less than 40%) | 0 (weed kill ratio 5% or less (practically no effect)) | 3 (weed kill ratio 40% or more, less than 70%) | 2 (weed kill ratio 20% or more, less than 40%) | 2 (weed kill ratio 20% or more, less than 40%) | – | – | – | – | – | – | – | – | – | – | –
7 | CC(C)(C(=O)Nc1cncc(Br)c1)N1COCN(c2ccccc2)C1=O [A-3-03] | 5 (weed kill ratio 90% or more, (practically complete withering)) | 5 (weed kill ratio 90% or more, (practically complete withering)) | 5 (weed kill ratio 90% or more, (practically complete withering)) | 0 (weed kill ratio 5% or less (practically no effect)) | 3 (weed kill ratio 40% or more, less than 70%) | 5 (weed kill ratio 90% or more, (practically complete withering)) | 4 (weed kill ratio 70% or more, less than 90%) | – | – | – | – | – | – | – | – | – | – | –
8 | CC(C)(C(=O)Nc1cncc(F)c1)N1COCN(c2ccccc2)C1=O [A-3-01] | 5 (weed kill ratio 90% or more, (practically complete withering)) | 5 (weed kill ratio 90% or more, (practically complete withering)) | 4 (weed kill ratio 70% or more, less than 90%) | 1 (weed kill ratio 5% or more, less than 20%) | 1 (weed kill ratio 5% or more, less than 20%) | 5 (weed kill ratio 90% or more, (practically complete withering)) | 2 (weed kill ratio 20% or more, less than 40%) | – | – | – | – | – | – | – | – | – | – | –
9 | CC(C)(C(=O)Nc1cccc(OC(F)F)n1)N1COCN(c2ccccc2)C1=O [A-2-54] | – | – | – | – | – | – | – | 5 (weed kill ratio 90% or more, (practically complete withering)) | 5 (weed kill ratio 90% or more, (practically complete withering)) | 4 (weed kill ratio 70% or more, less than 90%) | 1 (weed kill ratio 5% or more, less than 20%) | 3 (weed kill ratio 40% or more, less than 70%) | 4 (weed kill ratio 70% or more, less than 90%) | 3 (weed kill ratio 40% or more, less than 70%) | – | – | – | –
10 | Cc1cc(C)nc(NC(=O)C(C)(C)N2COCN(c3ccccc3)C2=O)c1 [A-2-56] | 5 (weed kill ratio 90% or more, (practically complete withering)) | 5 (weed kill ratio 90% or more, (practically complete withering)) | 5 (weed kill ratio 90% or more, (practically complete withering)) | 0 (weed kill ratio 5% or less (practically no effect)) | 4 (weed kill ratio 70% or more, less than 90%) | 5 (weed kill ratio 90% or more, (practically complete withering)) | 3 (weed kill ratio 40% or more, less than 70%) | – | – | – | – | – | – | – | – | – | – | –
11 | Cc1ccc(N2COCN(C(C)(C)C(=O)Nc3cc(F)cc(F)n3)C2=O)cc1 [A-6-10] | – | – | – | – | – | – | – | 5 (weed kill ratio 90% or more, (practically complete withering)) | 5 (weed kill ratio 90% or more, (practically complete withering)) | 5 (weed kill ratio 90% or more, (practically complete withering)) | 1 (weed kill ratio 5% or more, less than 20%) | 4 (weed kill ratio 70% or more, less than 90%) | 5 (weed kill ratio 90% or more, (practically complete withering)) | 5 (weed kill ratio 90% or more, (practically complete withering)) | – | – | – | –
12 | CC(C)(C(=O)Nc1cccc(C(F)(F)F)n1)N1COCN(c2ccccc2)C1=O [A-2-44] | 5 (weed kill ratio 90% or more, (practically complete withering)) | 5 (weed kill ratio 90% or more, (practically complete withering)) | 4 (weed kill ratio 70% or more, less than 90%) | 0 (weed kill ratio 5% or less (practically no effect)) | 3 (weed kill ratio 40% or more, less than 70%) | 5 (weed kill ratio 90% or more, (practically complete withering)) | 1 (weed kill ratio 5% or more, less than 20%) | – | – | – | – | – | – | – | – | – | – | –
13 | CC1=C(c2cccnc2F)C(=O)N(C(C)(C)C(=O)Nc2cc(C(F)(F)F)ccn2)CO1 [B-2-17] | – | – | – | – | 4 (weed kill ratio 70% or more, less than 90%) | 5 (weed kill ratio 90% or more, (practically complete withering)) | 3 (weed kill ratio 40% or more, less than 70%) | – | – | – | – | – | – | – | 5 (weed kill ratio 90% or more, (practically complete withering)) | 5 (weed kill ratio 90% or more, (practically complete withering)) | 5 (weed kill ratio 90% or more, (practically complete withering)) | 3 (weed kill ratio 40% or more, less than 70%)
14 | CSc1nc(NC(=O)C(C)(C)N2COCN(c3ccccc3)C2=O)ns1 [A-1-17] | – | – | – | – | – | – | – | 2 (weed kill ratio 20% or more, less than 40%) | 5 (weed kill ratio 90% or more, (practically complete withering)) | 3 (weed kill ratio 40% or more, less than 70%) | 0 (weed kill ratio 5% or less (practically no effect)) | 0 (weed kill ratio 5% or less (practically no effect)) | 4 (weed kill ratio 70% or more, less than 90%) | 2 (weed kill ratio 20% or more, less than 40%) | – | – | – | –
